Test results taken from patent publication US7273723B2, “Antibiotic-based gene regulation system” (priority 2001, dated 2007).

What was measured:
[1] = test system: ET1 / erythromycin-responsive promoter PETR3; assay: SEAP assay in CHO-Triplet42 transfected with PETR3-SEAP (pWW38); format: cell-based; conditions: antibiotic 2 μg/ml; for SEAP activity [U/L]: CHO-Triplet42 + PWW38 (PETR3), 48 h
Method: (§1) Chinese hamster ovary cells (CHO-K1, ATCC: CCL 61), and HeLa cells (ATCC: CRL-7923) as well as stable cell lines derived thereof were cultured as described before (Fussenegger et al., 1998, Nat. Biotechnol. 16,468-472) in the presence of appropriate antibiotics: G418 400 μg/ml; zeocin 100 μg/ml. Optimized CaPO4 protocols were used for high efficiency transient transfection of all cell lines (Fussenegger et al., 1998. Nat. Biotechnol. 16: 468-472). Transiently transfected cells were routinely analyzed after 48 h for CFP or SEAP expression using fluorescence microscopy and p-nitrophenolphosphate-based light absorbance timecourse, respectively, as described before (Fussenegger et al., 1998, Nat. Biotechnol. 16, 468-472; Berger et al., 1988, Gene 66, 1-10 b). For construction of stable CHO-ET1 and CHO-Triplet42 cell lines, CHO-Ki and CHO-TWIN1108 (Disclosed in PCT application no. 00/65080) were cotransfected with pWW35 and pZeoSV2 (invitrogen). CHO-ET11-SEAP was constructed by cotransfection of pWW38 and pSV2neo (Clontech) into CHO-ET11. The mixed populations were cloned using FACS-mediated single-cell-sorting (FACStar^Plus; Beckton Dickinson). For assessment of dose-response characteristics of PETR3-regulated gene expression, CHO-ET11-SEAP were cultured at cell densities of 50,000/ml for 48 h at various EM concentrations.
(§2) Other antibiotics were eluted from antibiotic test discs (Mast Diagnostica GmbH, Reinfeld, Germany, or bioMérieux, Geneva Switzerland) in cell culture medium at 37° C. for 12 h to reach a final concentration of 30 μg/ml. All macrolide antibiotics were used at a 2 μg/ml concentration unless indicated otherwise.
(§3) The regulation performance of the EM-based regulation system was compared directly with the widely used TET- and PIP responsive expression concepts. To this end, we have constructed a stable CHO-K1-derived cell line expressing ET1, PIT and tTA (CHO-Triplet42). […] CHO-Triplet42 was transfected with either isogenic (i) PETR3-(pWW38), (ii) a PPIR-(pristinamycin-responsive promoter, pMF172, Fussenegger et al., 2000. supra.), or (iii) a PhCMV*-1-(tetracycline-responsive promoter, pMF111, Fussenegger et al., 2000. supra) driven SEAP expression vector to assess the individual regulation performance of the three antibiotic-responsive gene regulation systems in CHO cells (Table 5).
(§4) To analyze the relative regulatory characteristics, we evaluated induction factors (IF; ratio of maximal expression level to antibiotic-repressed expression level).
(§5) These repressive effects are still in a range which is tolerable for use in potential medical applications.

[2] = test system: PIT / pristinamycin-responsive promoter PPIR; assay: SEAP assay in CHO-Triplet42 transfected with PPIR-SEAP (pMF172); format: cell-based; conditions: for SEAP activity [U/L]: CHO-Triplet42 + pMF172 (PPIR), antibiotic 2 μg/ml, 48 h
Method: as §1, §2, §3, §4, §5

[3] = test system: ET1 (MphR(A)-VP16) / PETR promoters; assay: SEAP reporter assay, CHO lines stably expressing ET1 (CHO-ET11, CHO-ET12) transiently transfected with PETR-SEAP plasmids; format: cell-based; conditions: for SEAP production [%]: CHO-ET11 transiently transfected with pWW38, 48 h, antibiotic 2 μg/ml, no macrolide = 100
Method: as §1, §2
Two representative clones, CHO-ET11 and CHO-ET12, were chosen at random among ET1-expressing CHO cell clones stably transfected with a constitutive ET1 expression construct (pWW35).
Access to alternative effective antibiotics would expand the spectrum of regulating agents available for future use in human cell and gene therapy. Accordingly, several commercially available antibiotic sources were tested for their potential to regulate the ET1/PETR3 system as shown below in Table 3.
The effect of the different spacer length in promoters PETR2 and PETR7-PETR11 were examined by transfecting the corresponding plasmids (pWW37, pBP10-pBP14) into a CHO cell line stably transfected with the transactivator ET1 (MphR(A)-VP 16, see example 1).

[4] = saliva, sputum, lung tissue, epithelial lining fluid, alveolar macrophages, neutrophils, tonsils, nasal mucosa, middle ear fluid; cited from earlier work
[5] = target: T1, tTA / tetracycline-responsive promoter PhCMV*-1 (Escherichia coli, UniProt P04483); assay: SEAP assay in CHO-Triplet42 transfected with PhCMV*-1-SEAP (pMF111); format: cell-based; conditions: antibiotic 2 μg/ml
T1 construct: expressed in transfected cells; host or cells: CHO-Triplet42 (from CHO-TWIN1108)
Method: as §1, §2

CN(C)[C@@H]1C(O)=C(C(N)=O)C(=O)[C@@]2(O)C(O)=C3C(=O)c4c(O)cccc4[C@@](C)(O)[C@H]3C[C@@H]12 [Tet, tetracycline]
SEAP activity [U/L] [1]: 55.0 ± 8.3 U/L
SEAP activity [U/L] [2]: 4.6 ± 0.4 U/L

CC[C@H]1OC(=O)C[C@@H](O)[C@H](C)[C@@H](O[C@@H]2O[C@H](C)[C@@H](O[C@H]3C[C@@](C)(O)[C@@H](O)[C@H](C)O3)[C@H](N(C)C)[C@H]2O)[C@@H](CC=O)C[C@@H](C)C(=O)/C=C/C(C)=C/[C@@H]1CO[C@@H]1O[C@H](C)[C@@H](O)[C@@H](OC)[C@H]1OC [Tylosin]
SEAP production [%] [3]: 30.9 ± 3.2%

CC[C@H]1OC(=O)[C@H](C)[C@@H](O[C@H]2C[C@@](C)(OC)[C@@H](O)[C@H](C)O2)[C@H](C)[C@@H](O[C@@H]2O[C@H](C)C[C@H](N(C)C)[C@H]2O)[C@](C)(O)C[C@@H](C)CN(C)[C@H](C)[C@@H](O)[C@]1(C)O [Azithromycin]
SEAP production [%] [3]: 57.6 ± 4.4%

CC[C@H]1OC(=O)[C@H](C)[C@@H](O[C@H]2C[C@@](C)(OC)[C@@H](O)[C@H](C)O2)[C@H](C)[C@@H](O[C@@H]2O[C@H](C)C[C@H](N(C)C)[C@H]2O)[C@](C)(OC)C[C@@H](C)C(=O)[C@H](C)[C@@H](O)[C@]1(C)O [Clarithromycin]
Induction factor (ratio of SEAP activity without antibiotic to SEAP activity with antibiotic) ([3]; CHO-ET11 + pWW38, 2 μg/ml): 23
SEAP production [%] [3]: 4.3 ± 0.3%
diffusion into tissues and fluids [4]: extensive diffusion

CO/N=C(\C(=O)N[C@@H]1C(=O)N2C(C(=O)O)=C(CSc3nc(=O)c(=O)[nH]n3C)CS[C@H]12)c1csc(N)n1 [Ceftriaxone]
SEAP production [%] [3]: 28.8 ± 1.8%

pristinamycin I [PI]
SEAP activity [U/L] [1]: 71.9 ± 7.0 U/L
Antibiotic crossregulation of PETR3 ([1]; CHO-Triplet42 + pWW38): no significant interference
SEAP activity [U/L] ([5]; CHO-Triplet42 + pMF111 (PhCMV*-1), 48 h): 87.9 ± 7.0 U/L
Antibiotic crossregulation of PhCMV*-1 ([5]; CHO-Triplet42 + pMF111): no significant interference
SEAP activity [U/L] [2]: 2.2 ± 0.1 U/L
Induction factor ([2]; Pip-system in CHO-Triplet42): three-fold

CC[C@H]1OC(=O)[C@H](C)[C@@H](O[C@H]2C[C@@](C)(OC)[C@@H](O)[C@H](C)O2)[C@H](C)[C@@H](O[C@@H]2O[C@H](C)C[C@H](N(C)C)[C@H]2O)[C@](C)(O)C[C@@H](C)/C(=N\OCOCCOC)[C@H](C)[C@@H](O)[C@]1(C)O [Roxithromycin]
SEAP production [%] [3]: 18.1 ± 0.9%
